Data reported in US4992369A, “Fermentation process for glycopeptide antibiotic” (Pfizer Inc., priority 1986, dated 1991).

Test system: rumen fluid
Experiment: In vitro rumen technique: propionic acid production in rumen fluid
Assay type: cell-based
Details: 10 micrograms per milliliter; rumen fluid from fistulated cow, 39° C., about 16 hours
Description: The value of animal feeds has generally been determined directly by feeding the animal. British Patent Specification No. 1,197,826 details an in vitro rumen technique whereby the changes occurring in feeds brought about by microorganisms are measured more readily and with great accuracy in the evaluation of animal feeds. This technique involves the use of an apparatus in which the digestive processes of the animals are conducted and studied in vitro. The animal feeds, rumen inoculum and various growth promotants are introduced into and withdrawn from a laboratory unit under carefully controlled conditions and the changes taken place are studied critically and progressively during the consumption of the feed by the microorganisms. […] The change in propionic acid content is expressed as percent of the propionic acid content found in the control rumen fluid. Long term in vivo feeding studies are used to show a reliable correlation between propionic acid increase in the rumen fluid and improved animal performance. […]
After incubation, 5 ml. of the sample is mixed with 1 ml. of 25% metaphosphoric acid. […] Samples are then analyzed by gas-liquid chromatography by the method of D. W. Kellog, J. Dairy Science, 52, 1690, 1969. Peak heights for acetic, propionic and butyric acids are determined for samples from untreated and treated incubation flasks.

CC[C@@H](C(=O)[C@@H](C)[C@@H](O)[C@H](C)[C@@H]1O[C@@H]([C@@H](CC)C(=O)O)CC[C@@H]1C)[C@H]1O[C@]2(C=C[C@@H](O)[C@]3(CC[C@@](C)([C@H]4CC[C@](O)(CC)[C@H](C)O4)O3)O2)[C@H](C)C[C@@H]1C [salinomycin]
increase in the production of propionic acid over control: ~46%
